Reference: patent US8772248B2, “Drug delivery system” (Keele University, priority 2004, dated 2014)
Values belong to the molecule of their own block, whether it stands above or below them. Peptide text beside a SMILES is read from it.

Columns and labels:
PepT1 [1] = test: In vivo transport across the gut wall, rat jejenum, HPLC analysis
Description: (§1) In vivo transport experiments, using the methodology described in Lister et al. (J. Physiol., 1995, 484.1, 173-182), were used to investigate the importance of the thio group in the compounds according to the invention during transport of thiopeptides across the gut wall. […] For the purposes of this experiment, this thiopeptide was not conjugated to a drug analogue molecule. Then, using rat jejenum, they carried out direct measurements of transport of this test thiopeptide across the gut wall. […]

PepT1 [2] = target: T1, PepT1 (Rattus norvegicus, UniProt P51574); test: as above; conditions: 1 mM
T1 construct: using rat jejenum; from tissue; host or cells: rat jejunum
T1 sequence (P51574 1-710): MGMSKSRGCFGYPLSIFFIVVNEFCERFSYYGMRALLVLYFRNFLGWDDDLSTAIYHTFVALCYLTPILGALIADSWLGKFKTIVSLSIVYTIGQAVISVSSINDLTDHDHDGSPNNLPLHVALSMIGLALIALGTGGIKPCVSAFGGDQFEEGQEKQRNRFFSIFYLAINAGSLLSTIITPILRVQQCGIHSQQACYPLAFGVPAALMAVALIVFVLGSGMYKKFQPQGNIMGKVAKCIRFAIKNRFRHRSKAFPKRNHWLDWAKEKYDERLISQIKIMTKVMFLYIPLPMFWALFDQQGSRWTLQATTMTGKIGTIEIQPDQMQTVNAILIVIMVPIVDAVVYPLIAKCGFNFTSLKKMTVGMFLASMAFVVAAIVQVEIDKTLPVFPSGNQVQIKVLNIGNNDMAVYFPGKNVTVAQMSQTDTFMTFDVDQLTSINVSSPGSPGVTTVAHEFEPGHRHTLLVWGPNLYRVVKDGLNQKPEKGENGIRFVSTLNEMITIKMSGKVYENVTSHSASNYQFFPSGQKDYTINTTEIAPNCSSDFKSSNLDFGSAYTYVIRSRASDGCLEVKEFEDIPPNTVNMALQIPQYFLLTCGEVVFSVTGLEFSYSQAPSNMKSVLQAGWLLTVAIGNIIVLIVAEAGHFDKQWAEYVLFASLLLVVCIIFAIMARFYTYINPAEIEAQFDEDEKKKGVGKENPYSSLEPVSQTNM
Description: as §1

PepT1 [3] = target: T2, PepT1 (Oryctolagus cuniculus, UniProt P36836); test: Efflux / trans-stimulation assay in PepT1-expressing oocytes injected with [3H]-D-Phe-L-Gln; assay type: cell-based
T2 construct: expressed in transfected cells
T2 sequence (P36836 1-707): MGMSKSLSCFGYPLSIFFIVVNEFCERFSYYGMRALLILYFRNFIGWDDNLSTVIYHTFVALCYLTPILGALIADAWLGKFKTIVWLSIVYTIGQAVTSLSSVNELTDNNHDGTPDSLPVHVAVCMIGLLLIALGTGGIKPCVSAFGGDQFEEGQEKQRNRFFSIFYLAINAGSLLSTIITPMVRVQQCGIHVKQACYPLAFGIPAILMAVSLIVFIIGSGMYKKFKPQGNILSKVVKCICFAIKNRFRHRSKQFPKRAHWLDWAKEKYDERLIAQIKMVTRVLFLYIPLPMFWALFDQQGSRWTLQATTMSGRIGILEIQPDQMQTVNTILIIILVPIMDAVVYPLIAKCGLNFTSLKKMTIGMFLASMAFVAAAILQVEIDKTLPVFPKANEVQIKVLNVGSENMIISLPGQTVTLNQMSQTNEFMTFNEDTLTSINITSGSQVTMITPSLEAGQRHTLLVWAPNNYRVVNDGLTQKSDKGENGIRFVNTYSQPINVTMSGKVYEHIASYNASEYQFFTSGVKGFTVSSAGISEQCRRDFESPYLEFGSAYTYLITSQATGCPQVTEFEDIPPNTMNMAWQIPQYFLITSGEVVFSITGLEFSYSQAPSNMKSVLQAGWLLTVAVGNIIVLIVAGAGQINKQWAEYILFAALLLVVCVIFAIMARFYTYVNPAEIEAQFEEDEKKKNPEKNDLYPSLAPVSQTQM
Experimental: Efflux experiments were performed as described in Temple et al., J. Biol. Chem., 1998, 273, 20-22. Briefly, PepT1-expressing oocytes were micro-injected with 4.6 nl of [^3H]-D-Phe-L-Gln (17.4 Ci/mmole) and allowed to recover for 15 minutes. 5 oocytes were incubated in […] uptake solution (pH 5.5) containing a potential substrate (i.e. a thiodipeptide-drug analogue conjugate) at 10 mM, with a negative control (i.e. uptake solution pH 5.5) and a positive control (i.e. 20 mM dipeptide Gly-Gln in pH 5.5 uptake solution). After 90 minutes incubation at room temperature, 50 μL of the medium was removed and placed in a scintillation vial for counting. The oocytes were washed sequentially five times in 1 mL of ice-cold uptake medium, then lysed individually with 100 μL 2% (w/v) SDS in vials, and liquid scintillation counted.
Efflux of the radiolabelled dipeptide is a positive indication of active transport via PepT1.
In the assays carried out, the dipeptide Gly-Gln (which is known to be transported by PepT1) caused about 30% of labelled D-Phe-L-Gln to remain in the oocytes. At the same concentration, the test substrates (the conjugates being tested) are assessed as follows:—
<(measureable efflux, but less transport than Gly-Gln control, with ≧50% of D-Phe-L-Gln remaining)
=(efflux similar to the effect of Gly-Gln, i.e. 25-50% of labelled D-Phe-L-Gln remaining)
>(more efflux than Gly-Gln, i.e. <25% of labelled D-Phe-L-Gln remaining)
There are no reports in the literature of thiodipeptides attached to drugs or drug analogues, and therefore no examples of such conjugates being actively transported.

rats = test: Single dose toxicity study in rat; assay type: in vivo; conditions: single oral dose 700 mg/kg
Experimental: Toxicity testing required about 5 g of the thiodipeptide, Ala-ΨS-Ser.tfa (trifluoroacetate salt), which was delivered to rats as test subjects.
Single oral dose of 700 mg/kg to 5 males and 5 females on day 1.
Test Substance Formulation: The dose formulation was successfully prepared using physiological saline as the vehicle. The concentration of the test substance was 140 mg/ml, dosed at a volume of 5 ml/kg, resulting in a dose of 700 mg/kg.

Resistance to hydrolysis = assay type: in vitro ADME
PepT1 [4] = target: T2, PepT1; test: Uptake of [3H]-D-Phe-L-Gln in oocytes in competition with test compound (binding to PepT1)
Experimental: Uptake of the radiolabelled dipeptide [^3H]-D-Phe-L-Gln (17.4 Ci/mmole, custom synthesised, Cambridge Research Biochemicals, Stockton-on-Tees, UK) in competition with the compounds to be tested, was performed as previously described (Meredith et al. J. Physiol., 1998, 512, 629-634). Briefly, 5 oocytes were incubated at room temperature in 100 μL of uptake medium (95 mM NaCl, 2 mM KCl, 1 mM CaCl2, 0.42 mM MgCl2, 10 mM Tris/Mes pH 5.5) with tracer (0.4 μM) [^3H]-D-Phe-L-Gln with or without a test compound at the appropriate concentration. After incubation for one hour, the oocytes were washed sequentially five times in 1 mL of ice-cold uptake medium, then lysed individually with 100 μL 2% (w/v) SDS in vials, and liquid scintillation counted.
Quantitative binding data has been produced for a large number of thiodipeptide carriers with attached drug surrogates using the methodology described in Meredith et al., 1998, discussed supra, and is shown in Table 2 below, and in FIG. 7. Each of the thiopeptide carrier molecules shown is in accordance with the present invention, with each compound comprising a serine amino acid side chain group on the second amino acid residue.

resistance to peptidases of the small intestine (PepT1 [1]): resistant to the peptidases
transport rate relative to control dipeptide D-Phe-L-Gln (PepT1 [2]): about 13 times
Structure (SMILES): C[C@H](NC(=S)[C@@H](N)Cc1ccccc1)C(=O)O [thiopeptide analogue of L-Phe-L-Ala, Phe-ΨS-Ala]
transport rate (PepT1 [2]): 3.09 (+/−0.047) micromol/min/g of whole dry intestine

cpm remaining in oocytes (PepT1 [3]; 10 mM, average from 5 experiments): 1347 (+/−126) cpm
efflux (PepT1 [3]; at 10 mM): 72%
labelled D-Phe-L-Gln remaining in the oocytes (PepT1 [3]; positive control Gly-Gln, pH 5.5, 90 minutes): about 30%
Structure (SMILES): NCC(=O)N[C@@H](CCC(N)=O)C(=O)O [Gly-Gln] (H-Gly-Gln-OH)

Structure (SMILES): CC(N)C(=S)N[C@@H](CO)C(=O)O.O=C(O)C(F)(F)F (stereo partly shown) [Ala-ΨS-Ser.tfa]
Intercurrent deaths (rats; 15 days): no intercurrent deaths
Clinical observations (rats; daily for 15 days): no treatment related findings
Bodyweights (rats; day 15): All animals had gained weight
Macroscopic findings at scheduled termination (rats; day 15): no macroscopic findings

substrate for PepT1 (PepT1 [4]): substrate for PepT1
Ki (PepT1 [4]; competition with 0.4 μM [3H]-D-Phe-L-Gln, oocytes, pH 5.5, one hour): 1.07 mM
Structure (SMILES): CC(N)C(=S)NC(COCc1ccccc1)C(=O)O [D-Ala-ΨS-Ser(OBn)]
resistance to hydrolysis (Resistance to hydrolysis): more hydrolysis resistant than its corresponding L-isomer
